Consider nine compounds from US12473294B2, “Selective modulators of mutant LRRK2 proteolysis and associated methods of use” (Arvinas Operations, Inc., priority 2020, dated 2025).

Assay [1] addresses T1, G2019S LRRK2 (Homo sapiens, UniProt Q5S007, G2019S).
T1 construct: expressed in transfected cells; host or cells: HEK293 (ATCC CRL-1573)
The assay is described as follows: LRRK2 degradation HiBit assay, G2019S LRRK2 tagged with a HiBit tag expressed in HEK293 cells. As to conditions: 24 hours compound incubation; for Dmax: HEK293, HEK293 cells. It is filed as cell-based. The procedure:
The assay measures the degradation of wildtype and G2019S LRRK2 tagged with a HiBit tag on the C-terminus of the protein that was expressed from a mammalian expression vector, driven by the ubiquitin promoter in HEK293 cells. Each compound dose-response was repeated on three separate days, on three separate plates each day.
(§1) Plasmid Preparation. Transfection mixes were assembled as follows and incubated for 30 minutes at room temperature. In a 15 mL tube, 5.25 mL Opti-MEM (no additions) was mixed with 17 μL Firefly Luciferase plasmid at 1 μg/μL and 158 μL WT plasmid DNA at 1 μg/μL (175 μg total DNA) were mixed by flicking. In a new 15 mL tube, 5.25 mL OptiMEM was mixed with 17 μL Firefly Luciferase plasmid at 1 μg/μL and 158 μL G2019S plasmid DNA at 1 μg/μL (175 μg total DNA) were mixed by flicking. X-tremeGene HP was mixed thoroughly using a vortex. Next, 175 μL was added to each tube and flicked to mix. Both tubes were left to incubate for 30 minutes at room temperature.
While the transfection mixes were incubating, HEK293 cells acquired from ATCC (ATCC CRL-1573) were harvested with trypsin. Once cells are detached, the cells were resuspended in 12 mL OptiMEM+5% FBS and transferred to a 50 mL tube. The cells were mixed well and counted. Using OptiMEM+5% FBS, the cells were diluted in two 250 mL conical tubes at 0.71×10^6 cells/mL in 70 mL. One tube was labeled “WT” and the other “G2019S”. The WT and G2019S transfection mixes were added dropwise to the corresponding 250 mL tubes. The tubes were mixed first by pipetting then by swirling. The tubes were incubated at room temperature for at least 5 minutes.
(§2) Each tube was swirled before dispensing and after every three plates. Seventy microliters of cells were dispensed with WT or G2019S DNA to seven plates each. Three plates of each were tested with compound plate one (preparation described below) and three plates of each were tested with compound plate two (preparation described below). The first plate from each set served as a “prime” plate and was not used to test compounds. Each plate was incubated in the hood for 10 minutes before placing in the 37° C. incubator for 24 hours.
(§3) Preparation of Compound and Assay Plates. Two compound plates were made using 96 well polypropylene plates. Compounds were made up at 10 mM and were diluted to 1 mM in 30 μL. Each dose response curve included a well of DMSO, as a negative control and for normalization, and a well of 0.5 μM of Exemplary Compound 4 as a positive control. In addition to seven test compounds, each plate also included a dose response of Exemplary Compound 4. The compound plates were spun down along at 1200 rpm for 2 minutes.
(§4) The two compound plates were then mixed and 2 μL was diluted in intermediate plates having 248 μL of Opti-Mem in each well. Next, 10 μL diluted compounds from the intermediate plates were added to each test plate (three WT and three G2019S plates per compound plate for a total of 12 assay plates). The plates were incubated for 24 hours at 37° C.
(§5) All assay plates and all Nano-Glo Dual-Luciferase Reporter Assay System components (except for the DLR substrate) were equilibrated to room temperature. Next, the luciferase buffer was mixed with the lyophilized amber bottle until fully dissolved, and 75 μL of the luciferase mixture was added to each well of each assay plate. The assay plates were incubated for 10 minutes at room temperature with shaking for at least 5 minutes, and then read on a plate reader.
(§6) Developing Plates and Analyzing Data. One milliliter of DLR substrate and 1 mL LgBiT Protein were added to the Stop and Glo buffer, and 75 μL of the mixture was added to each well of each plate. Optically clear seals were added to each plate and each plate was incubated for 20 minutes with shaking for at least 10 minutes, and then read on a plate reader. […]

The target of assay [2] is T2, wildtype LRRK2 (Homo sapiens, UniProt Q5S007).
T2 construct: endogenous in cells; host or cells: HEK293 with HiBit knocked in at the 3' end of the endogenous LRRK2 gene, stably expressing firefly luciferase
T2 sequence (Q5S007 whole entry): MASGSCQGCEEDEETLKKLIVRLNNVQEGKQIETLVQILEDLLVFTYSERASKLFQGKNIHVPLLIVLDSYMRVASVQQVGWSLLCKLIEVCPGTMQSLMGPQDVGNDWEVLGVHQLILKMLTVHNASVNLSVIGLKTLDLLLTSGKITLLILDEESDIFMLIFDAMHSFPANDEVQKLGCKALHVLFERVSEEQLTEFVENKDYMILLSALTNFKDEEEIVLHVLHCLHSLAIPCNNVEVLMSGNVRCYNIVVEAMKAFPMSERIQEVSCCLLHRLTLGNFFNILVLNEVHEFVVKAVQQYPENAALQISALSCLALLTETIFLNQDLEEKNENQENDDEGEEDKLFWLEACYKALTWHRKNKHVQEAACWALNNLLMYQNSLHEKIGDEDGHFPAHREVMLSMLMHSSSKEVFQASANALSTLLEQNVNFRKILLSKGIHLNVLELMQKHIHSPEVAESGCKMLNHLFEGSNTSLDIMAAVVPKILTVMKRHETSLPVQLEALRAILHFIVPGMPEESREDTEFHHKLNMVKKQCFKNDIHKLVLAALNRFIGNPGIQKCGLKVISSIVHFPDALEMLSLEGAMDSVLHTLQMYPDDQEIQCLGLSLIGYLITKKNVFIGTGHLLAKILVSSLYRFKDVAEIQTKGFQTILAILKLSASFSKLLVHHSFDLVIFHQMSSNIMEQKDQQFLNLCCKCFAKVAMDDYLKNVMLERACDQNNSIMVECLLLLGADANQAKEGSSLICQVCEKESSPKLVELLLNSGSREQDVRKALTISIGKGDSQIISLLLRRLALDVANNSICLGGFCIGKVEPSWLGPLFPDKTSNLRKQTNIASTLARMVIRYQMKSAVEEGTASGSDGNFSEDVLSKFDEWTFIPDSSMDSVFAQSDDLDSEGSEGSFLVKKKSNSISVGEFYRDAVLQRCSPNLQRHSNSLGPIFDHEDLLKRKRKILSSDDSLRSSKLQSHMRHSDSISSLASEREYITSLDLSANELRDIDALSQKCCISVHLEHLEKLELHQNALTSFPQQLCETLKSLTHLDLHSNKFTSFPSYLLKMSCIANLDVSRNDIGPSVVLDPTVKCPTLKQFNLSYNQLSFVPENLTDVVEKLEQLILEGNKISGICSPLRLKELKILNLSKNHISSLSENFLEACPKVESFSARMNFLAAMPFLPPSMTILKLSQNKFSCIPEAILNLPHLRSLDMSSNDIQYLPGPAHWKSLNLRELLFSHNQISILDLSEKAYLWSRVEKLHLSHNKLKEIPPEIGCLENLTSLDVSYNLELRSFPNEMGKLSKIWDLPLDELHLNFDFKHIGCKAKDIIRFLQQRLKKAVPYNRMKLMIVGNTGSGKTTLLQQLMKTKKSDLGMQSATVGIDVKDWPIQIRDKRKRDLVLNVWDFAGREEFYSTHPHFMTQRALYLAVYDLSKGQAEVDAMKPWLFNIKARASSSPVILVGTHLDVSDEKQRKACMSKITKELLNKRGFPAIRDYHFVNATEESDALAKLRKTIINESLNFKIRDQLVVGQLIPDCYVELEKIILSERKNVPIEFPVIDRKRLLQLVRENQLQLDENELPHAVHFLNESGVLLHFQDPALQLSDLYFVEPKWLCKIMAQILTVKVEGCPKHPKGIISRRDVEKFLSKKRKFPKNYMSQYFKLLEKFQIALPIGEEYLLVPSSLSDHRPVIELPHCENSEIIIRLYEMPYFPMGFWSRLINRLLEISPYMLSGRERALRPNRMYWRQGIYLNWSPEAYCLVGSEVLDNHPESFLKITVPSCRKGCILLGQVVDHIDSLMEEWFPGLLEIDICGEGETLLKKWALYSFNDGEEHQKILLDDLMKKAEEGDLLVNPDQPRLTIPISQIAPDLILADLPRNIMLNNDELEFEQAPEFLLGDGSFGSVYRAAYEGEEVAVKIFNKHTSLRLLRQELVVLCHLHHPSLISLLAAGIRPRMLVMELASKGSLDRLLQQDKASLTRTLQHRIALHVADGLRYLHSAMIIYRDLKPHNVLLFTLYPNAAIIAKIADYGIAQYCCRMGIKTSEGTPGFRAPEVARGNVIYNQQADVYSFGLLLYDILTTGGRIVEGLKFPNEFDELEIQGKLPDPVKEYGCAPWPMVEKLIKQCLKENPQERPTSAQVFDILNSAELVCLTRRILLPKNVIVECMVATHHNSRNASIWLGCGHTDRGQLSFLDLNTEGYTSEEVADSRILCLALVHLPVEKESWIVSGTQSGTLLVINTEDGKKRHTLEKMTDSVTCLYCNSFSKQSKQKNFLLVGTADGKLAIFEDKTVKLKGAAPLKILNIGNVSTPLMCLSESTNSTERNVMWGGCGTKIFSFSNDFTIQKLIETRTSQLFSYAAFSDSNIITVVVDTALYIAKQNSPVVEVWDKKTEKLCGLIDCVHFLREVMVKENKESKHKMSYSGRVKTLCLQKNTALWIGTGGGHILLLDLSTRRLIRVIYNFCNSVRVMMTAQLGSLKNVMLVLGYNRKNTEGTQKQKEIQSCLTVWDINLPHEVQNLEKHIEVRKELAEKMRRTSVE
The assay is described as follows: LRRK2 degradation HiBit assay, wildtype LRRK2 tagged with a HiBit tag in HEK293 cells. In kind it is cell-based. As to conditions: 24 hours compound incubation; for Dmax: read-out: ** WT Dmax (%); for DC50: read-out: *WT DC50. The method, then: The assay measures the degradation of wildtype and G2019S LRRK2 tagged with a HiBit tag on the C-terminus of the protein that was expressed from a mammalian expression vector, driven by the ubiquitin promoter in HEK293 cells. Each compound dose-response was repeated on two separate days, on three separate plates each day.
as §1
While the transfection mixes were incubating, HEK293 cells (acquired from ATCC; ATCC CRL-1573) were harvested with trypsin. Once cells are detached, the cells were resuspended in 12 mL OptiMEM+5% FBS and transferred to a 50 mL tube. The cells were mixed well and counted. Using OptiMEM+5% FBS, the cells were diluted in two 250 mL conical tubes at 0.71×10^6 cells/mL in 70 mL. One tube was labeled “WT” and the other “G2019S”. The WT and G2019S transfection mixes were added dropwise to the corresponding 250 mL tubes. The tubes were mixed first by pipetting then by swirling. The tubes were incubated at room temperature for at least 5 minutes.
as §2, §3, §4, §5, §6

T1 sequence (Q5S007 whole entry G2019S): as the sequence (Q5S007 whole entry) above, with G2019S counted along it

In the case of `CC1=C(C(=O)Nc2ccc3[nH]nc(-c4ccnc(N5CCN(CCN6CCC(CC7CCN(c8ccc9c(c8)C(=O)N(C8CCC(=O)NC8=O)C9=O)CC7)CC6)CC5)c4)c3c2)[C@@H](C)n2nnnc2N1C` (stereo partly drawn) [compound 23, (7R)-N-(3-(2-(4-(2-(4-((1-(2-(2,6-dioxopiperidin-3-yl)-1,3-dioxoisoindolin-5-yl)piperidin-4-yl)methyl)piperidin-1-yl)ethyl)piperazin-1-yl)pyridin-4-yl)-1H-indazol-5-yl)-4,5,7-trimethyl-4,7-dihydrotetrazolo[1,5-a]pyrimidine-6-carboxamide], the Dmax in assay [1] and in assay [2] was 50 to 70% each time. For the same compound, the DC50 in assay [1] (HEK293 cells) was in the range of 10 to 50 nM; in assay [2], 50 to 100 nM.

For `CC1=C(C(=O)Nc2ccc3[nH]nc(-c4ccnc(N5CCN(C6CN(CC7CCN(c8ccc9c(c8)C(=O)N(C8CCC(=O)NC8=O)C9=O)CC7)C6)CC5)c4)c3c2)[C@@H](C)n2nnnc2N1C` (stereo partly drawn) [compound 24, (7R)-N-[3-(2-{4-[1-({1-[2-(2,6-dioxopiperidin-3-yl)-1,3-dioxo-2,3-dihydro-1H-isoindol-5-yl]piperidin-4-yl}methyl)azetidin-3-yl]piperazin-1-yl}pyridin-4-yl)-1H-indazol-5-yl]-4,5,7-trimethyl-4H,7H-[1,2,3,4]tetrazolo[1,5-a]pyrimidine-6-carboxamide], the Dmax in assay [1] was 50 to 70%; in assay [2], < 50%. In addition, the DC50 in assay [1] (HEK293 cells) and in assay [2] was 10 to 50 nM throughout.

For `CC1=C(C(=O)Nc2ccc3[nH]nc(-c4ccnc(N5CCN(CCN6CCN(CC7CCN(c8ccc9c(c8)C(=O)N(C8CCC(=O)NC8=O)C9=O)CC7)CC6)CC5)c4)c3c2)[C@@H](C)n2nnnc2N1C` (stereo partly drawn) [compound 25, (7R)-N-{3-[2-(4-{2-[4-({1-[2-(2,6-dioxopiperidin-3-yl)-1,3-dioxo-2,3-dihydro-1H-isoindol-5-yl]piperidin-4-yl}methyl)piperazin-1-yl]ethyl}piperazin-1-yl)pyridin-4-yl]-1H-indazol-5-yl}-4,5,7-trimethyl-4H,7H-[1,2,3,4]tetrazolo[1,5-a]pyrimidine-6-carboxamide], in assay [1] (HEK293 cells), the “**G2019S Dmax (%)” value is “A (A ≥ 70)” and the DC50 was in the range of 10 to 50 nM. Besides, in assay [2], the Dmax was ≥ 70% and the 50% degradation concentration (DC50) fell in the range of 50 to 100 nM.

As for `CC1=C(C(=O)Nc2ccc3[nH]nc(-c4ccnc(N5CC6(CN(CC7CCN(c8ccc9c(c8)C(=O)N(C8CCC(=O)NC8=O)C9=O)CC7)C6)C5)c4)c3c2)[C@@H](C)n2nnnc2N1C` (stereo partly drawn) [compound 26, (7R)-N-(3-{2-[6-({1-[2-(2,6-dioxopiperidin-3-yl)-1,3-dioxo-2,3-dihydro-1H-isoindol-5-yl]piperidin-4-yl}methyl)-2,6-diazaspiro[3.3]heptan-2-yl]pyridin-4-yl}-1H-indazol-5-yl)-4,5,7-trimethyl-4H,7H-[1,2,3,4]tetrazolo[1,5-a]pyrimidine-6-carboxamide], the Dmax in assay [1] is ≥ 70%. For the same compound, the DC50 in assay [1] (HEK293 cells) and in assay [2] was ≥ 100 nM throughout.

`CC1=C(C(=O)Nc2ccc3[nH]nc(-c4ccnc(N5CCN(CCN6CCC(CN7CCN(c8ccc9c(c8)C(=O)N(C8CCC(=O)NC8=O)C9=O)CC7)CC6)CC5)c4)c3c2)[C@H](C)n2nnnc2N1C` (stereo partly drawn) [compound 27, (7S)-N-{3-[2-(4-{2-[4-({4-[2-(2,6-dioxopiperidin-3-yl)-1,3-dioxo-2,3-dihydro-1H-isoindol-5-yl]piperazin-1-yl}methyl)piperidin-1-yl]ethyl}piperazin-1-yl)pyridin-4-yl]-1H-indazol-5-yl}-4,5,7-trimethyl-4H,7H-[1,2,3,4]tetrazolo[1,5-a]pyrimidine-6-carboxamide]: in assay [1], the Dmax is 50 to 70%. Further, the half-maximal degradation concentration (DC50) in assay [1] (HEK293 cells) and in assay [2] was ≥ 100 nM in each case.

Regarding `CC1=C(C(=O)Nc2ccc3[nH]nc(-c4ccnc(N5CCN(CCN6CCN(CC7CCN(c8ccc9c(c8)C(=O)N(C8CCC(=O)NC8=O)C9=O)CC7)CC6)[C@@H](C)C5)c4)c3c2)[C@H](C)n2nnnc2N1C` (stereo partly drawn) [compound 28, (7S)-N-(3-{2-[(3S)-4-{2-[4-({1-[2-(2,6-dioxopiperidin-3-yl)-1,3-dioxo-2,3-dihydro-1H-isoindol-5-yl]piperidin-4-yl}methyl)piperazin-1-yl]ethyl}-3-methylpiperazin-1-yl]pyridin-4-yl}-1H-indazol-5-yl)-4,5,7-trimethyl-4H,7H-[1,2,3,4]tetrazolo[1,5-a]pyrimidine-6-carboxamide], in assay [1], the Dmax lay in the range of 50 to 70%. The DC50 in assay [1] (HEK293 cells) and in assay [2] was ≥ 100 nM in each case.

Take `CC1=C(C(=O)Nc2ccc3[nH]nc(-c4ccnc(N5CCN(CC6CCN(CC7CCN(c8ccc9c(c8)C(=O)N(C8CCC(=O)NC8=O)C9=O)CC7)CC6)CC5)c4)c3c2)C(C)(C)n2nnnc2N1C` (centres unmarked) [compound 29, N-{3-[2-(4-{[1-({1-[2-(2,6-dioxopiperidin-3-yl)-1,3-dioxo-2,3-dihydro-1H-isoindol-5-yl]piperidin-4-yl}methyl)piperidin-4-yl]methyl}piperazin-1-yl)pyridin-4-yl]-1H-indazol-5-yl}-4,5,7,7-tetramethyl-4H,7H-[1,2,3,4]tetrazolo[1,5-a]pyrimidine-6-carboxamide]: the Dmax in assay [1] and in assay [2] was < 50% in each case. Also, the DC50 in assay [1] (HEK293 cells) is 10 to 50 nM; in assay [2], ≥ 100 nM.

As to `CC1=C(C(=O)Nc2ccc3[nH]nc(-c4ccnc(N5CCN(CCN6CCN(CC7CCN(c8ccc9c(c8)C(=O)N(C8CCC(=O)NC8=O)C9=O)CC7)CC6)[C@@H](C)C5)c4)c3c2)C(C)(C)n2nnnc2N1C` (stereo partly drawn) [compound 30, N-(3-{2-[(3S)-4-{2-[4-({1-[2-(2,6-dioxopiperidin-3-yl)-1,3-dioxo-2,3-dihydro-1H-isoindol-5-yl]piperidin-4-yl}methyl)piperazin-1-yl]ethyl}-3-methylpiperazin-1-yl]pyridin-4-yl}-1H-indazol-5-yl)-4,5,7,7-tetramethyl-4H,7H-[1,2,3,4]tetrazolo[1,5-a]pyrimidine-6-carboxamide], the Dmax in assay [1] and in assay [2] was < 50% throughout. Further, the DC50 in assay [1] (HEK293 cells) is 10 to 50 nM; in assay [2], ≥ 100 nM.

Take `CC1=C(C(=O)Nc2ccc3[nH]nc(-c4ccnc(N5CCN(CCN6CCC(CN7CCN(c8ccc9c(c8)C(=O)N(C8CCC(=O)NC8=O)C9=O)CC7)CC6)[C@@H](C)C5)c4)c3c2)[C@H](C)n2nnnc2N1C` (stereo partly drawn) [compound 31, (7S)-N-(3-{2-[(3S)-4-{2-[4-({4-[2-(2,6-dioxopiperidin-3-yl)-1,3-dioxo-2,3-dihydro-1H-isoindol-5-yl]piperazin-1-yl}methyl)piperidin-1-yl]ethyl}-3-methylpiperazin-1-yl]pyridin-4-yl}-1H-indazol-5-yl)-4,5,7-trimethyl-4H,7H-[1,2,3,4]tetrazolo[1,5-a]pyrimidine-6-carboxamide]: the Dmax in assay [1] was < 50%. The DC50 in assay [1] (HEK293 cells) and in assay [2] was ≥ 100 nM throughout.
